Several values for one entry are separate records, joined by “and”; a condition that tells them apart may be missing. Equal entries are not always repeated. ± gives the uncertainty stated by the source.
Assay: xn = mol fraction of the nth substance listed

O=C1OCCO1 + COC(=O)OC
viscosity [mPa·s], 101.3 kPa
Details | x2 = 0.0802 | x2 = 0.166 | x2 = 0.2441 | x2 = 0.3467 | x2 = 0.4421 | x2 = 0.5442 | x2 = 0.6512 | x2 = 0.761 | x2 = 0.8513
298.15 K | 2.043 ± 0.016 | 1.83 ± 0.015 | 1.656 ± 0.013 | 1.452 ± 0.012 | 1.285 ± 0.011 | 1.127 ± 0.009 | 0.983 ± 0.008 | 0.854 ± 0.007 | 0.761 ± 0.007
313.15 K | 1.688 ± 0.014 | 1.506 ± 0.012 | 1.357 ± 0.011 | 1.184 ± 0.01 | 1.042 ± 0.009 | 0.91 ± 0.008 | 0.789 ± 0.007 | 0.682 ± 0.006 | 0.604 ± 0.006

CC(C)CO + COC(C)(C)C
298.15 K, 101 kPa
Details | viscosity [mPa·s]
x2 = 0.1007 | 2.39 ± 0.029
x2 = 0.2009 | 1.72 ± 0.021
x2 = 0.2996 | 1.27 ± 0.016
x2 = 0.3951 | 0.987 ± 0.012
x2 = 0.502 | 0.776 ± 0.01
x2 = 0.6038 | 0.637 ± 0.008
x2 = 0.7002 | 0.536 ± 0.007
x2 = 0.8022 | 0.449 ± 0.006
x2 = 0.9008 | 0.385 ± 0.005

CC1=CCC2CC1C2(C)C (configuration not stated) + COC(C)(C)C
298.15 K, 101.33 kPa
Details | viscosity [mPa·s]
x2 = 0.0598 | 1.196 ± 0.0096
x2 = 0.128 | 1.091 ± 0.0088
x2 = 0.2151 | 0.9713 ± 0.0079
x2 = 0.357 | 0.8048 ± 0.0068
x2 = 0.4839 | 0.6762 ± 0.0061
x2 = 0.5691 | 0.603 ± 0.0057
x2 = 0.6514 | 0.5379 ± 0.0054
x2 = 0.7236 | 0.4866 ± 0.0052
x2 = 0.8254 | 0.4221 ± 0.0049
x2 = 0.9034 | 0.379 ± 0.0048
x2 = 0.9583 | 0.3576 ± 0.0047

CCCCCOC(C)=O + COc1ccccc1
Details | viscosity [mPa·s]
298.15 K, 101 kPa, x2 = 0.5 | 0.8265 ± 0.0082

ClCC(Cl)Cl + COc1ccccc1N
viscosity [mPa·s], 100 kPa
Details | x2 = 0.0884 | x2 = 0.1905 | x2 = 0.2923 | x2 = 0.4076 | x2 = 0.5076 | x2 = 0.5945 | x2 = 0.7016 | x2 = 0.8104 | x2 = 0.9023
303.15 K | 1.376 ± 0.043 | 1.786 ± 0.056 | 2.192 ± 0.068 | 2.647 ± 0.082 | 3.038 ± 0.094 | 3.376 ± 0.11 | 3.789 ± 0.12 | 4.204 ± 0.13 | 4.554 ± 0.14
308.15 K | 1.291 ± 0.041 | 1.676 ± 0.052 | 2.055 ± 0.064 | 2.478 ± 0.077 | 2.841 ± 0.088 | 3.154 ± 0.098 | 3.535 ± 0.11 | 3.918 ± 0.12 | 4.236 ± 0.13
313.15 K | 1.204 ± 0.038 | 1.566 ± 0.049 | 1.916 ± 0.06 | 2.307 ± 0.072 | 2.641 ± 0.082 | 2.929 ± 0.091 | 3.279 ± 0.1 | 3.629 ± 0.11 | 3.918 ± 0.12

C1CCC2=[NH+]CCCN2CC1.c1nc[n-]n1 + CS(C)=O
303.15 K, 100 kPa
Details | viscosity [mPa·s]
x1 = 0.1001 | 3.86 ± 0.09
x1 = 0.2 | 7.19 ± 0.16
x1 = 0.2999 | 12.29 ± 0.28
x1 = 0.4003 | 22.17 ± 0.51
x1 = 0.4989 | 39.73 ± 0.95
x1 = 0.6002 | 77.3 ± 2.1
x1 = 0.7008 | 152.3 ± 6.6
x1 = 0.7993 | 309.9 ± 21
x1 = 0.9002 | 586.4 ± 53

CC(C)CO + CS(C)=O
viscosity [mPa·s], 101.3 kPa
Details | x2 = 0.0944 | x2 = 0.1917 | x2 = 0.289 | x2 = 0.3884 | x2 = 0.4863 | x2 = 0.5874 | x2 = 0.6887 | x2 = 0.7913 | x2 = 0.8951
298.15 K | 2.785 ± 0.12 | 2.366 ± 0.11 | 2.056 ± 0.094 | 1.934 ± 0.089 | 1.879 ± 0.087 | 1.853 ± 0.086 | 1.858 ± 0.086 | 1.891 ± 0.087 | 1.918 ± 0.089
303.15 K | 2.424 ± 0.11 | 2.071 ± 0.095 | 1.847 ± 0.085 | 1.754 ± 0.082 | 1.703 ± 0.079 | – | 1.686 ± 0.079 | 1.693 ± 0.079 | 1.733 ± 0.081

O=C1OCCO1 + CS(C)=O
313.15 K, 101.33 kPa
Details | viscosity [mPa·s]
x2 = 0.0721 | 1.862 ± 0.007
x2 = 0.1744 | 1.786 ± 0.007
x2 = 0.2849 | 1.709 ± 0.006
x2 = 0.3698 | 1.656 ± 0.006
x2 = 0.469 | 1.611 ± 0.006
x2 = 0.5668 | 1.571 ± 0.005
x2 = 0.6744 | 1.538 ± 0.005
x2 = 0.7969 | 1.515 ± 0.005
x2 = 0.8782 | 1.51 ± 0.005
x2 = 0.9732 | 1.511 ± 0.005

Cc1ccccc1O + C[N+](C)(C)CCO.[Cl-]
298.15 K, 101.33 kPa
Details | viscosity
x1 = 0.7 | 137.1 ± 51 mPa·s
x1 = 0.8 | 73.25 ± 21 mPa·s and 56.18 ± 14 mPa·s and 47.22 ± 11 mPa·s
x1 = 0.9 | 38.19 ± 8.1 mPa·s

O=C(O)C(=O)O + C[N+](C)(C)CCO.[Cl-]
viscosity [mPa·s], x2 = 0.5
Details | 293.15 K | 293.2 K | 298.15 K | 303.2 K | 308.15 K | 313.2 K | 318.15 K
100 kPa | 15680 ± 1300 | – | 8953 ± 680 | – | 3332 ± 220 | – | 1421 ± 82
101.3 kPa | – | 7595 ± 1700 | – | 4359 ± 690 | – | 2174 ± 340 | –

O=C(O)CO + C[N+](C)(C)CCO.[Cl-]
100 kPa, x2 = 0.5
Details | viscosity [mPa·s]
293.15 K | 779.4 ± 41
298.15 K | 547.9 ± 28
303.15 K | 394.8 ± 19
308.15 K | 290.6 ± 13
313.15 K | 218.6 ± 9.8
318.15 K | 167 ± 7.2
323.15 K | 130.1 ± 5.5

CC(C)CO + Cc1ccc(C)cc1
308.15 K, 101 kPa
Details | viscosity [mPa·s]
x1 = 0.0452 | 0.549 ± 0.012
x1 = 0.1043 | 0.562 ± 0.012
x1 = 0.1908 | 0.595 ± 0.012
x1 = 0.3019 | 0.649 ± 0.014
x1 = 0.3823 | 0.697 ± 0.015
x1 = 0.4859 | 0.775 ± 0.016
x1 = 0.6097 | 0.969 ± 0.02
x1 = 0.7046 | 1.218 ± 0.025
x1 = 0.8071 | 1.487 ± 0.031
x1 = 0.8948 | 1.856 ± 0.039
x1 = 0.9585 | 2.247 ± 0.047

CCCCCOC(C)=O + Cc1ccc(O)cc1
Details | viscosity [mPa·s]
298.15 K, 101 kPa, x2 = 0.5 | 1.169 ± 0.011

Cc1ccccc1O + Cc1ccc(O)cc1
viscosity [mPa·s]
Details | 298.15 K | 313.15 K | 323.15 K
101 kPa, x1 = 0.1547 | 13.27 ± 0.21 | – | –
101 kPa, x1 = 0.2999 | 12 ± 0.18 | – | –
101 kPa, x1 = 0.3525 | 11.63 ± 0.18 | – | –
101 kPa, x1 = 0.4233 | 11.03 ± 0.17 | – | –
101 kPa, x1 = 0.5256 | 10.3 ± 0.15 | – | –
101 kPa, x1 = 0.6304 | 9.612 ± 0.14 | – | –
101 kPa, x1 = 0.7573 | 8.854 ± 0.13 | – | –
101 kPa, x1 = 0.875 | 8.209 ± 0.12 | – | –
101.3 kPa, x1 = 0.1 | – | 6.38 ± 0.077 | 4.318 ± 0.053
101.3 kPa, x1 = 0.2 | – | 6.086 ± 0.073 | 4.147 ± 0.051
101.3 kPa, x1 = 0.3 | – | 5.766 ± 0.069 | 3.929 ± 0.048
101.3 kPa, x1 = 0.4 | – | 5.425 ± 0.065 | 3.727 ± 0.045
101.3 kPa, x1 = 0.5 | – | 5.125 ± 0.061 | 3.555 ± 0.043
101.3 kPa, x1 = 0.6 | – | 4.847 ± 0.057 | 3.401 ± 0.041
101.3 kPa, x1 = 0.7 | – | 4.616 ± 0.054 | 3.235 ± 0.039
101.3 kPa, x1 = 0.8 | – | 4.435 ± 0.052 | 3.112 ± 0.037
101.3 kPa, x1 = 0.9 | – | 4.3 ± 0.05 | 3.047 ± 0.036
